Experimental data taken from paper PMC4394749 (Journal of medicinal chemistry, 2015).
Each block holds one molecule with its values, some of them ahead of it.

Assays:
PC-3 cells [1] = assay: Immunofluorescence staining of microtubules in PC-3 cells; assay type: cell-based, human; conditions: PC-3, 24 h; for microtubule morphology: equitoxic concentrations: 0.2 µM 4, 0.2 µM CA-4, 5 µM VIN, 0.2 µM PXL; for dose-dependent effects on microtubule morphology: compounds 0.2, 2 or 20 µM, CA-4 0.002 or 20 µM
bovine brain tubulin = bovine brain tubulin (Bos taurus, UniProt P81947+Q6B856); assay: Inhibition of [3H]colchicine binding to tubulin; conditions: 5 µM [3H]colchicine, 1 µM tubulin, 5 µM test compound
[2] = system: KB (epidermoid carcinoma of the nasopharynx); assay: SRB antiproliferative assay, KB; assay type: cell-based, human; conditions: for IC50: read-out: IC50 KB, 72 h; for IC50 KB: 72 h
[3] = system: KB-VIN (P-gp-overexpressing MDR subline of KB); assay: SRB antiproliferative assay, KB-VIN; assay type: cell-based, human; conditions: for IC50: read-out: IC50 KB-VIN, 72 h
PC-3 (prostate cancer) = assay: SRB antiproliferative assay, PC-3; assay type: cell-based, human; conditions: for IC50: read-out: IC50 PC-3; for IC50 / IC50 PC-3: SRB, 72 h
A549 (lung carcinoma) = assay: SRB antiproliferative assay, A549; assay type: cell-based, human; conditions: for IC50: read-out: IC50 A549, 72 h; for IC50 A549: 72 h
[4] = system: HepG2 (hepatocellular carcinoma); assay: SRB antiproliferative assay, HepG2; assay type: cell-based, human; conditions: for IC50: read-out: IC50 Hep-G2, 72 h; for IC50 Hep-G2: 72 h
[5] = system: HCT-8 (human colon adenocarcinoma); assay: SRB antiproliferative assay, HCT-8; assay type: cell-based; conditions: for IC50: read-out: IC50 HCT-8
PC-3 cells [6] = assay: Cell cycle analysis by flow cytometry; assay type: cell-based, human; conditions: 2 µM, 24 h
[7] = system: SK-BR-3 (HER2-overexpressing breast cancer); assay: SRB antiproliferative assay, SK-BR-3; assay type: cell-based, human; conditions: for IC50: read-out: IC50 SK-BR3, 72 h

Sequence of bovine brain tubulin (P81947 whole entry): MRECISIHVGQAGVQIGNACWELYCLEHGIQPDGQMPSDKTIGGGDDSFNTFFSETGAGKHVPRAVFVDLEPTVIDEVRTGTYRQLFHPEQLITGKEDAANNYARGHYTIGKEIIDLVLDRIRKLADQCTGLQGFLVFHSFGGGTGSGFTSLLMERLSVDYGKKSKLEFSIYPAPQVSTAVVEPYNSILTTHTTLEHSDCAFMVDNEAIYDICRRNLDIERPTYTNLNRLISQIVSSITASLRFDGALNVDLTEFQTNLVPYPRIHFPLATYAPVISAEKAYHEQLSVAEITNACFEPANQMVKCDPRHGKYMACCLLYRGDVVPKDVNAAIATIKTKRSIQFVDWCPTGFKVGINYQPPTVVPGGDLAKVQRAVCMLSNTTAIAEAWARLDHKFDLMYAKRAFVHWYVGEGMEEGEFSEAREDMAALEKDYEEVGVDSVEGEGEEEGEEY
Sequence of bovine brain tubulin (Q6B856 whole entry): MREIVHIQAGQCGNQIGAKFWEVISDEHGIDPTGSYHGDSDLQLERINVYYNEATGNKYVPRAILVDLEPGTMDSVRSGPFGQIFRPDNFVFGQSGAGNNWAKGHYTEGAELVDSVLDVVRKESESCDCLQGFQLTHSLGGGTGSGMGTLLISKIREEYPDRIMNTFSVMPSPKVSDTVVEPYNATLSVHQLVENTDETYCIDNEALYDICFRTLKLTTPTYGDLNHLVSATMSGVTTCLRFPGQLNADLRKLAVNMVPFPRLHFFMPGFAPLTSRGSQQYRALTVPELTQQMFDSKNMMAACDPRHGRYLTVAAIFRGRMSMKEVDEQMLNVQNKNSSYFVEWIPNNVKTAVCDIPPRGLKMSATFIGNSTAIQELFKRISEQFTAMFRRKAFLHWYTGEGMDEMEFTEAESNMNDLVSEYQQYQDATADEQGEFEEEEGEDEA

SMILES: COc1ccc(/C=C\c2cc(OC)c(OC)c(OC)c2)cc1O [CA-4, combretastatin A-4, reference compound]
- microtubule morphology (PC-3 cells [1]): both depolymerization of interphase microtubules and disruption of mitotic spindles
- dose-dependent effects on microtubule morphology (PC-3 cells [1]): Dose-dependent disruption of both interphase microtubules and spindles

SMILES: CCC1=C(O)c2c(oc(-c3csc4ccc(O)cc34)cc2=O)C(CC)(CC)C1=O [Compound 7, 2-(5′-Hydroxybenzo[b]thiophen-3′-yl)-6,8,8-triethyldesmos-dumotin B]
- ICB, percent inhibition of colchicine binding (bovine brain tubulin): 32%

SMILES: CCC1=C(O)c2c(oc(-c3csc4cc(O)ccc34)cc2=O)C(CC)(CC)C1=O [Compound 8, 2-(6′-Hydroxybenzo[b]thiophen-3′-yl)-6,8,8-triethyldesmos-dumotin B]
- ICB, percent inhibition of colchicine binding (bovine brain tubulin): 39%

SMILES: CC[C@]1(O)C[C@H]2CN(CCc3c([nH]c4ccccc34)[C@@](C(=O)OC)(c3cc4c(cc3OC)N(C=O)[C@H]3[C@@](O)(C(=O)OC)[C@H](OC(C)=O)[C@]5(CC)C=CCN6CC[C@]43[C@@H]65)C2)C1 [VIN, vincristine, reference compound]
- microtubule morphology (PC-3 cells [1]): tubulin paracrystal formation

Second part, led by results:

- IC50 [2]: 1.28 µM
- IC50 (PC-3 (prostate cancer)): 1.47 µM
- IC50 (A549 (lung carcinoma)): 2.04 µM
- IC50 [4]: 3.01 µM
- IC50 ([5]; SRB, 72 h): 10.6 µM
- ICB, percent inhibition of colchicine binding (bovine brain tubulin): 37%
SMILES: CCC1=C(O)c2c(oc(-c3csc4c(O)cccc34)cc2=O)C(CC)(CC)C1=O [Compound 9, 2-(7′-Hydroxybenzo[b]thiophen-3′-yl)-6,8,8-triethyldesmos-dumotin B]
- IC50 [3]: 1.12 µM
- fold reduced inhibitory effect against HCT-8 ([5]; compared with 6 and 8): more than 5 fold
- effect on cell cycle distribution (PC-3 cells [6]): efficiently induced accumulation of G2/M phase cells
- dose-dependent effects on microtubule morphology (PC-3 cells [1]): Dose-dependent disruption of both interphase microtubules and spindles

- IC50 KB [2]: NA ^e (NA, not active (IC50 > 10 µg/mL))
- IC50 PC-3 (PC-3 (prostate cancer)): NA (NA, not active (IC50 > 10 µg/mL))
- IC50 A549 (A549 (lung carcinoma)): NA (NA, not active (IC50 > 10 µg/mL))
- IC50 Hep-G2 [4]: NA (NA, not active (IC50 > 10 µg/mL))
- IC50 HCT-8 ([5]; SRB, 72 h): NA (NA, not active (IC50 > 10 µg/mL))
- IC50 [7]: 18.7 µM
SMILES: CCC1=C(O)c2c(oc(-c3csc4cccc(OC)c34)cc2=O)C(CC)(CC)C1=O [Compound 10, 2-(4′-Methoxybenzo[b]thiophen-3′-yl)-6,8,8-triethyldes-mosdumotin B]
- IC50 [3]: 11.8 µM

- IC50 KB [2]: NA (NA, not active (IC50 > 10 µg/mL))
- IC50 PC-3 (PC-3 (prostate cancer)): NA (NA, not active (IC50 > 10 µg/mL))
- IC50 A549 (A549 (lung carcinoma)): NA (NA, not active (IC50 > 10 µg/mL))
- IC50 Hep-G2 [4]: NA (NA, not active (IC50 > 10 µg/mL))
- IC50 ([5]; SRB, 72 h): 16.2 µM
- IC50 SK-BR3 ([7]; 72 h): NA (NA, not active (IC50 > 10 µg/mL))
SMILES: CCC1=C(O)c2c(oc(-c3csc4ccc(OC)cc34)cc2=O)C(CC)(CC)C1=O [Compound 11, 2-(5′-Methoxybenzo[b]thiophen-3′-yl)-6,8,8-triethyldes-mosdumotin B]
- IC50 KB-VIN ([3]; 72 h): NA (NA, not active (IC50 > 10 µg/mL))

- IC50 [2]: 19.6 µM
- IC50 (PC-3 (prostate cancer)): 14.6 µM
- IC50 (A549 (lung carcinoma)): 12.5 µM
- IC50 [4]: 15.8 µM
- IC50 ([5]; SRB, 72 h): 16.5 µM
- IC50 [7]: 12.1 µM
SMILES: CCC1=C(O)c2c(oc(-c3sc4ccccc4c3O)cc2=O)C(CC)(CC)C1=O [Compound 14, 2-(3′-Hydroxybenzo[b]thiophen-2′-yl)-6,8,8-triethyldesmos-dumotin B]
- IC50 [3]: 6.61 µM
- fold reduced activity against PC-3 (PC-3 (prostate cancer); compared with parent compound 13): 4 fold
